Reference: paper PMC9814792 (Communications Chemistry, 2022)

Key:
[1] = tested on: CT26 allografts; test: In vivo anticancer activity, CT26 allografts; parameters: species or system BALB/c mice
Method: Eight-to nine-week-old female BALB/c mice bred in-house (originally Janvier) were kept in pathogen-free conditions and controlled environment with 12 h light-dark cycle. CT26 cells (5 × 10^5 in 50 µL serum-free RPMI medium) were injected subcutaneously (s.c.) into the right flank of the animals. […] Tumor growth was evaluated by daily recording of tumor size by caliper measurement. […] The reasons were primarily either enhanced tumor size or ulceration. For drug distribution (digestion and ICP-MS measurement details see below), histological and GSH determination experiments, mice were treated twice during one week and sacrificed 24 h after the last drug dosing. The animal experiments were performed according to the regulations of the Ethics Committee for the Care and Use of Laboratory Animals at the Medical University Vienna (proposal number BMBWF-V/3b 2020-0.380.502).

[2] = tested on: HCT116/OxR cells; test: 72 h cell viability (MTT) assay; format: cell-based, human
Method: Absorbance was measured at 450 nm (at 620 nm as reference) using the multimode plate reader Tecan Infinite 200 Pro (Zurich, Switzerland). Cytotoxicity was expressed as IC50 values calculated from full dose-response curves using the 4 parameter nonlinear regression model of GraphPad Prism 8 software (La Jolla, CA, USA).

CCCCS(=N)(=O)CCC(NC(=O)[O][Pt]1([O]C(C)=O)[O]C(=O)C(=O)[O]1)C(=O)O.NC1CCCCC1N (mixture of isomers) [BSO-OxOAc, (OC-6-34)-Acetato(((1 S)-3-(butylsulfonimidoyl)-1-carboxypropyl)carbamato)((1 R,2 R)-1,2-cyclohexanediamino)oxalatoplatinum(IV)]
tumor doubling time extended ([1]; CT26 allografts, twice a week for two weeks, equimolar doses): 1.2 fold
maximal tumor growth inhibition ([1]; day 11, CT26 allografts, twice a week for two weeks, equimolar to 9 mg/kg oxaliplatin i.v.): 51.3%
tumor volumes as compared to solvent controls ([1]; first two weeks of treatment): significantly reduced tumor volumes
IC50 ([2]; HCT116/OxR, 72 h continuous exposure, read-out: IC50 value (95% confidence interval)): 95.5 µM
resistance factor ([2]; IC50 HCT116/OxR divided by IC50 HCT116): 2.9
